These results are taken from US20250345468A1, “COMBINATION TREATMENT OF SMALL-CELL LUNG CANCER” (ITM ISOTOPE TECHNOLOGIES MUNICH SE, priority 2022, published 2025).

Each structure is given as a SMILES string.

The subject of one series is PARP. The settings on record: cited from earlier work.
For series [1], the system named is SSTR2. Kind of series: in vivo. The settings on record: athymic nude, mouse, 10 MBq. The arrangement: species or system athymic nude mice. The method, then:
(§1) H446 and H69 as SSTR2 expressing SCLC cell lines were subcutaneously inoculated into mice to establish a mouse xenograft model. The results were obtained from PET scans. […] By control experiments, the tumors were blocked with non-radioactive (non-labelled) DOTATOC (octreotide) for comparative reasons (“w/Block”).
(§2) Tumor accumulation of ^68Ga-DOTATOC (10 MBq) was evaluated in SCLC xenograft mouse model by subcutaneous inoculation of 2-3 mio SSTR2 expressing H446 and H69 cells, respectively, into athymic nude mice. The results (obtained from PET scans) shown in FIG. 8 reveal a visible uptake of ^68Ga-DOTATOC in the tumor after 4 hours p.i.

The test system of series [2] is SSTR2 expressing H69 cells. Kind of series: in vivo. Set-up: species or system athymic nude mice. The conditions noted are these: mouse. As for the experimental part: as §1, §2
For series [3], the system named is SSTR2. Kind of series: in vivo. The arrangement: species or system athymic nude mice. The conditions noted are these: athymic nude, mouse, 10 MBq. As for the experimental part: as §1, §2
The source holds these as a separate data set.

The subject of the next series is H446 cells. Kind of series: Cell viability (IC50) assay in H446 SCLC cells. Type of series: cell-based, human. As for the experimental part: FIG. 1A: H446 and H69 cells treated with increasing concentrations of Rucaparib. […] (IC50 values: ^177Lu-DOTA-TOC: 8.9 kBq, ^177Lu-DOTATOC and 5 μM Rucaparib: 0.9 kBq, ^177LU-DOTATOC and 20 μM Rucaparib; 0.4 kBq)
(§3) FIG. 1A). […] At such concentrations, neither Rucaparib nor ^177Lu-DOTATOC, respectively, alone have any major impact on cell viability. The activity required for ^177Lu-DOTATOC to reduce cell viability to 50% by H446 cells in the combination treatment was reduced by a factor of 10 (5 μM Rucaparib) to 22 (20 μM Rucaparib).
(§4) Further evidence for such a synergistic effect was collected by analogous viability assays employing other PARP inhibitors, such as Olaparib and Talazoparib, in combination with ^177Lu-DOTATOC. The applied PARP inhibitor concentrations for combination therapy was adjusted depending on their individual cytotoxicity. […] That finding was proven in all cell lines.

The next series has as its system H69 cells. Kind of series: Cell viability (IC50) assay in H69 SCLC cells. The class given is cell-based, human.
Text: FIG. 3A: Determination of the IC50 values of Rucaparib in the H446 and H69 cell lines. FIG. 3B: H446, FIG. 3C: H69 cell lines. Cell viability was studied upon combined cell treatment with Olaparib and ^177Lu-DOTA-TOC vs. ^177Lu-DOTA-TOC alone.
as §3, §4

Another series has as its system H69 SCLC cells. Kind of series: Tumor growth delay and survival, H69 xenograft mouse model. The settings on record: PARP inhibitor alone.

Consider `Cn1ncnc1[C@H]1c2n[nH]c(=O)c3cc(F)cc(c23)N[C@@H]1c1ccc(F)cc1` [Talazoparib], for which, in the series with PARP, the “Potency relative to olaparib” value is “about 100 times”.

The term tissue uptake denotes the percentage of the injected dose found per gram of tissue. High values mean high uptake, low ones low uptake. As for `C[C@@H](O)[C@@H]1NC(=O)[C@H](CCCCN)NC(=O)[C@@H](Cc2c[nH]c3ccccc23)NC(=O)[C@H](Cc2ccc(O)cc2)NC(=O)[C@@H](NC(=O)[C@@H](Cc2ccccc2)NC(=O)CN2CCN(CC(=O)O)CCN(CC(=O)O)CCN(CC(=O)O)CC2)CSSC[C@@H](C(=O)N[C@H](CO)[C@@H](C)O)NC1=O` [^68Ga-DOTATOC, ^68Ga-DOTA-D-Phe-cyclo(Cys-Tyr-D-Trp-Lys-Thr-Cys)Thr(ol), metal not drawn], the tissue uptake at 4 h with SSTR2 [1] and in the series with SSTR2 [3] was 1 to 3 %ID/g throughout. Also, in series [2], the “Uptake in H69 cells relative to H446 cells” value is given as around 2 fold.

The IC50 is the concentration that gives 50% inhibition. In the case of `CNCc1ccc(-c2[nH]c3cc(F)cc4c3c2CCNC4=O)cc1` [Rucaparib], the Cell viability result in the series with H446 cells (20 μM Rucaparib alone) and in the series with H69 cells (20 μM Rucaparib alone) was “slightly reduced” throughout. The IC50 in the series on H446 cells (Homo sapiens, NCI-H446, Rucaparib alone) amounted to 32 µM; with H69 cells (Homo sapiens, NCI-H69, Rucaparib alone), 36 µM. Also, the “Anti-cancer effect of single therapy” value in the series on H69 SCLC cells is “did not result in major anti-cancer effects”.

For the molecule `O=C(c1cc(Cc2n[nH]c(=O)c3ccccc23)ccc1F)N1CCN(C(=O)C2CC2)CC1` [Olaparib], the “Anti-cancer effect of single therapy” value in the series on H69 SCLC cells is “did not result in major anti-cancer effects”.
